# Read-outs that look alike come from different tables or passages of the source.
# Assays:
# [1] = test system: polymyxin-resistant mcr-1 positive Enterobacteriaceae; assay: In vitro antibacterial effect on polymyxin-resistant mcr-1 positive Enterobacteriaceae, agar dilution MIC (Experiment 2); format: cell-based, Escherichia coli; settings: for MIC50 / MIC90: Escherichia coli; for MIC50: read-out: MIC50 Value, polymyxin-resistant mcr-1 positive Escherichia coli, agar dilution; for MIC90: read-out: MIC90 Value, polymyxin-resistant mcr-1 positive Escherichia coli, agar dilution
# Experimental: Tested samples: the compounds of the present invention, prepared according to the methods of the preparation examples;
# Polymyxin E sulphate, Ampicillin, Cefotaxime, Gentamicin, Ciprofloxacin, Tetracycline, and Bactrim were all commercial products, the following experiments were carried out according to the content of an effective ingredient in each commercial product.
# Tested strains: Escherichia coli carrying mcr-1 gene isolated from animals and Escherichia coli ATCC25922, a quality control strain, were provided by South China Agricultural University.
# With reference to the agar dilution method in CLSI, the MIC value of the tested drugs to the polymyxin resistant mcr-1 positive Escherichia coli were determined.
# Preparation of drug-containing agar plates: a drug solution with the highest concentration was prepared for each compound; the drug solution with the highest concentration was subjected to the double dilution; for each of dilution gradient, 1 mL (20×drug working solution) of the drug solution was added to 19 mL MH agar at 45-50° C.; immediately after addition, the agar and the drug solution were uniformly mixed to give a drug-containing agar plate with final concentrations of […], and the plate was solidified for later use; and in the meanwhile, a growth control group was arranged.
# Inoculum preparation and culture: the strains stored at −80° C. were rejuvenated and formulated with broth so that the turbidity reached or exceeded 0.5 #McFarland unit; a 96-well plate was used as the inoculation tank, and the bacterial solution was diluted with sodium chloride injection so that the content of bacteria inoculated on the agar was 10^4 CFU/point. A multi-point inoculation instrument was used to inoculate the bacterial solution to the surface of the labeled drug-containing agar. After the water in the inoculation point was completely absorbed by the agar, the plate was placed upside down in a 37° C. constant-temperature incubator and incubated for 16-20 hours.
# [2] = test system: Pseudomonas aeruginosa; assay: In vitro antibacterial activity, agar dilution MIC (Experiment 1); format: cell-based
# Experimental: (§1) Tested strains: all the clinically separated strains below were purchased from public facilities.
# (§2) Escherichia coli ATCC25922, Pseudomonas aeruginosa ATCC27853, Klebsiella pneumoniae ATCC700603, and the like.
# (§3) Tested Samples: Imipenem, Ceftazidime: Commercial Products, the Following Experiments were Carried Out According to the Content of an Effective Ingredient in Each Commercial Product;
# (§4) The compounds of the present invention, their chemical names, and preparation methods are shown in the preparation example of each compound.
# (§5) Experiment method: Agar dilution method, refer to National Committee for Clinical Laboratory Standards. 2006. Methods for Dilution Antimicrobial Susceptibility Tests for Bacteria That Grow Aerobically; Approved Standard—Seventh Edition M7-A7, Vol 26, No. 2, 2006, to determine the MIC of the compound. MIC represents the minimum inhibitory concentration.
# [3] = test system: Escherichia coli; assay: as above; format: cell-based
# Experimental: as §1, §2, §3, §4, §5
# [4] = test system: Klebsiella pneumoniae; assay: as above; format: cell-based
# Experimental: as §1, §2, §3, §4, §5
# [5] = Pharmacokinetics (PK) determination in SD rats (Experiment 4); format: in vivo; settings: plasma; for Cl_obs / Vz_obs / t1/2z / λ_z: IV 2 mg/kg; for AUC(0-t) / AUC(0-inf): Sprague-Dawley (SD), rat, iv, 2 mg/kg; for AUC(0-inf): read-out: AUCINF_obs
# Experimental: The compound of the present invention, self-prepared and dissolved in a suitable solvent.
# Instrument and equipment: API4000 LC-MS/MS
# Chromatographic column: Waters XBridge C18(2.1×50 mm, […])
# Rat blood collection: Animals were fixed. The animal's tail was heated with a water bathtub 10 minutes before each time point. About 200 μL of the blood was collected through the caudal vein. After the blood collection, the blood was placed in an anticoagulation tube containing heparin sodium. The blood samples were centrifuged at 8000 rpm for 6 minutes at 4° C. to obtain plasma samples. The plasma must be prepared within 30 minutes after the blood collection. The plasma was stored in a refrigerator at −80° C. before the test.
# (1) Test samples were removed from the refrigerator (−80° C.), naturally thawed at room temperature, and then vortexed for 5 minutes;
# (2) 20 μL sample was precisely pipetted to a 1.5 mL centrifuge tube;
# (3) 200 μL of the internal standard solution was added;
# (4) The mixture was vortexed for 5 minutes and centrifuged for 5 minutes (12000 revolutions per minute);
# (5) 100 μL of the supernate was precisely pipetted, 100 μL of water was added, the mixture was vortexed for 5 minutes, and the sample was sent to LC-MS/MS for analysis.
# The results of the concentrations of the test samples (plasma samples) were output with Analyst 1.6.1 of AB Corporation. The meaning value, the standard deviation, the coefficient of variation, and other parameters (not necessary to calculate the parameter that can be directly output from Analyst 1.6.1) were calculated with Microsoft Excel, and the PK parameter is calculated with Pharsight Phoenix 6.1 software.
# [6] = agar dilution (Table 3), read-out: MIC90
# [7] = agar dilution (Table 3), read-out: MIC50
smiles,measurement,setting,value
CC1(C)S[C@@H]2[C@H](NC(=O)[C@H](N)c3ccccc3)C(=O)N2[C@H]1C(=O)O [Ampicillin],MIC50,[1],> 128 µg/mL
same,MIC90,[1],> 128 µg/mL
CO/N=C(\C(=O)N[C@@H]1C(=O)N2C(C(=O)O)=C(COC(C)=O)CS[C@H]12)c1csc(N)n1 [Cefotaxime],MIC50,[1],2 µg/mL
same,MIC90,[1],128 µg/mL
O=C(O)c1cn(C2CC2)c2cc(N3CCNCC3)c(F)cc2c1=O [Ciprofloxacin],MIC50,[1],4 µg/mL
same,MIC90,[1],32 µg/mL
"C[C@@H](O)[C@H](NC(=O)c1ccc(C#CC#Cc2ccc(CN(C)C)o2)cc1)C(=O)NO [Compound 4, 4-((5-((dimethylamino)methyl)furan-2-yl)buta-1,3-diynyl)-N-((2S,3R)-3-hydroxy-1-(hydroxyamino)-1-oxobutan-2-yl)benzamide]",MIC50,[2],1 µg/mL
same,MIC90,[2],4 µg/mL
same,MIC50,[3],0.25 µg/mL
same,MIC90,[3],0.25 µg/mL
same,MIC50,[4],1 µg/mL
same,MIC90,[4],2 µg/mL
same,Cl_obs,[5],80 ± 1.83 mL/min/kg
same,Vz_obs,[5],1.74 ± 0.81 L/kg
same,t1/2z,[5],15 ± 7.2 min
same,λ_z,[5],3.16 ± 1.28 h⁻¹
same,AUC(0-t),[5],414 ± 10.3 ng·h/mL
same,AUC(0-inf),[5],417 ± 9.68 ng·h/mL
"CNC(=O)C(C(=O)NO)N(C)C(=O)c1ccc(C#CC#Cc2ccc(CO)o2)cc1 (centres unmarked) [Compound 5, N-methyl-N-(3-methylamino-1-(hydroxyamino)-1,3-dioxopropan-2-yl)-4-((5-(hydroxymethyl)furan-2-yl)buta-1,3-diynyl)benzamide]",MIC50,[2],0.125 µg/mL
same,MIC90,[2]; [6],1 µg/mL
same,MIC50,"[3]; agar dilution, read-out: MIC50",2 µg/mL
same,MIC90,"[3]; agar dilution, read-out: MIC90",4 µg/mL
same,MIC90,[1],0.5 µg/mL
same,MIC90 Value,"[1]; polymyxin-resistant mcr-1 positive Escherichia coli, agar dilution",1 µg/mL
same,Cl_obs,[5],10.3 ± 1.3 mL/min/kg
same,Vz_obs,[5],0.63 ± 0.02 L/kg
same,t1/2z,[5],42.6 ± 6.6 min
same,λ_z,[5],0.99 ± 0.15 h⁻¹
same,AUC(0-t),[5],8110 ± 1050 ng·h/mL
same,AUC(0-inf),[5],8150 ± 1040 ng·h/mL
"C[C@@H](O)[C@H](NC(=O)c1ccc(C#CC#Cc2ccc(CNC3CC3)o2)cc1)C(=O)NO [Compound 11, 4-((5-((cyclopropylamino)methyl)furan-2-yl)buta-1,3-diynyl)-N-((2S,3R)-3-hydroxy-1-(hydroxamino)-1-oxobutan-2-yl)benzamide]",MIC50,[2]; [7],1 µg/mL
same,MIC90,[2]; [6],8 µg/mL
same,MIC50,"[3]; agar dilution, read-out: MIC50",0.125 µg/mL
same,MIC90,"[3]; agar dilution, read-out: MIC90",0.25 µg/mL
same,MIC50,"[4]; agar dilution, read-out: MIC50",0.5 µg/mL
same,MIC90,"[4]; agar dilution, read-out: MIC90",2 µg/mL
"C[C@@H](O)[C@H](NC(=O)c1ccc(C#CC#Cc2ccc(CNCCOCCO)o2)cc1)C(=O)NO [Compound 18, N-((2S,3R)-3-hydroxy-1-(hydroxyamino)-1-oxobutan-2-yl)-4-((5-((2-(2-hydroxyethoxy)ethylamino)methyl)furan-2-yl)buta-1,3-diynyl)benzamide]",MIC50,[2]; [7],1 µg/mL
same,MIC90,[2]; [6],4 µg/mL
same,MIC50,"[4]; agar dilution, read-out: MIC50",2 µg/mL
same,MIC90,"[4]; agar dilution, read-out: MIC90",2 µg/mL
"C[C@@H](O)[C@H](NC(=O)c1ccc(C#CC#Cc2ccc(CNCCCN3CCOCC3)o2)cc1)C(=O)NO [Compound 22, N-((2S,3R)-3-hydroxy-1-(hydroxyamino)-1-oxobutan-2-yl)-4-((5-((3-morpholinopropylamino)methyl)furan-2-yl)buta-1,3-diynyl)benzamide]",MIC50,[2]; [7],4 µg/mL
same,MIC90,[2]; [6],> 16 µg/mL
same,MIC50,"[3]; agar dilution, read-out: MIC50",0.5 µg/mL
same,MIC90,"[3]; agar dilution, read-out: MIC90",2 µg/mL

# Reference: US11498909B2, “Compound acting as antibiotics” (KBP BIOSCIENCES CO., LTD., priority 2018, dated 2022)
